Biological target: D2 receptor (Homo sapiens, UniProt P14416)
Assay: PET central D2 occupancy studies SWE-1 and SIV-101
Assay type: in vivo
Source text: It has been empirically derived and is currently widely excepted that 65-70% occupancy is needed for antipsychotics to show clinical efficacy (Farde et al.), i.e. improvement on the PANSS scale. A too high occupancy (80-85%) will typically increase the risk to develop EPS. In order to determine the central D2 occupancy, PET trials in human healthy volunteers are typically performed.

D2 receptor, sequence (P14416 whole entry): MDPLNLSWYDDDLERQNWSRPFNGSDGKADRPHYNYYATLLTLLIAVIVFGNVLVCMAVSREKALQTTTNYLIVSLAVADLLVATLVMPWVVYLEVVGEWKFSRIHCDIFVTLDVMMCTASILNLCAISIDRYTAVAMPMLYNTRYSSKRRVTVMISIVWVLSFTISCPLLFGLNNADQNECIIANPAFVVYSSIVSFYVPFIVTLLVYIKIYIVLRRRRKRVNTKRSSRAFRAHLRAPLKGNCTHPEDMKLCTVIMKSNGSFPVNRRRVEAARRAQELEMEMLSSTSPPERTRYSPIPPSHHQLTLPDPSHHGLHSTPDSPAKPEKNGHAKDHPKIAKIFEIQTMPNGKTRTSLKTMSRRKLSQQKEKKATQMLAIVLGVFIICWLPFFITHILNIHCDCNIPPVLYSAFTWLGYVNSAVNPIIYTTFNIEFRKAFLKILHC

In the case of `Cc1nc2n(c(=O)c1CCN1CCC(c3noc4cc(F)ccc34)CC1)CCCC2O` (centres unmarked) [paliperidone, 9-hydroxy-risperidone], the Kd is reported as 10.3 to 15 nM and the “exposure range for efficacy without an increased risk to develop EPS (target exposure range)” value (calculated using the 65-85% D2 occupancy window) is reported as 7.5 to 40 ng/mL.

Source: patent US9439906B2, “Dosing regimen associated with long acting injectable paliperidone esters” (Janssen Pharmaceutica NV, priority 2007, dated 2016)
